Measurements: patent US20200216818A1 (priority 2013, published 2020)

Columns and labels:
Assay in all cases: MTS viability assay, ZD2767P prodrug, untransduced vs VV-CPG2-transduced cells
FaDu cells = assay type: cell-based, human; settings: FaDu cells transduced with VV-CPG2 at MOI 0.1 vs untransduced
SW620 cells = assay type: cell-based; settings: SW620 cells transduced with VV-CPG2 at MOI 0.1 vs untransduced
WM226.4 cells = assay type: cell-based; settings: WM226.4 cells transduced with VV-CPG2 at MOI 0.1 vs untransduced

O=C(O)CC[C@H](NC(=O)Oc1ccc(N(CCI)CCI)cc1)C(=O)O [ZD2767P, N-(4-[bis(2-iodoethyl)amino]phenoxycarbonyl)-L-glutamic acid]
reduction of the EC50 of ZD2767P (FaDu cells): 103 fold | reduction of the EC50 of ZD2767P (SW620 cells): 119 fold | reduction of the EC50 of ZD2767P (WM226.4 cells): 114 fold
